# Test system: relapsed/refractory (R/R) follicular lymphoma (FL)
# Experiment: DAWN study (NCT01779791): phase 2, single-arm ibrutinib monotherapy
# Format: in vivo, humans
# Details: patients with R/R FL, ibrutinib 560 mg once daily
# Excerpt: Detailed methodology for the DAWN trial is published in Gopal A K, et al. J Clin Oncol. 2018; 36:2405-2412. […] The primary end point was overall response rate (ORR=complete response [CR]+partial response [PR]), assessed by an independent review committee using the International Working Group Revised Response Criteria for Malignant Lymphoma.
smiles,measurement,setting,value
"C=CC(=O)N1CCC[C@@H](n2nc(-c3ccc(Oc4ccccc4)cc3)c3c(N)ncnc32)C1 [ibrutinib, Ibrutinib]",duration of response (median) in responders,,19.4 months
same,overall response rate (ORR = complete response + partial response),"independent review committee, 95% CI 13.7-29.7",20.9%

# Reference: US20200171034A1, “Methods Of Treating Follicular Lymphoma” (Janssen Biotech, Inc., priority 2018, published 2020)
